{
  "source": "paper PMC7057177",
  "about": "(Journal of medicinal chemistry, 2019)",
  "key": {"menin protein": {"biological_target": "T1, menin protein (Homo sapiens, UniProt O00255)", "T1 sequence (O00255 1-610)": "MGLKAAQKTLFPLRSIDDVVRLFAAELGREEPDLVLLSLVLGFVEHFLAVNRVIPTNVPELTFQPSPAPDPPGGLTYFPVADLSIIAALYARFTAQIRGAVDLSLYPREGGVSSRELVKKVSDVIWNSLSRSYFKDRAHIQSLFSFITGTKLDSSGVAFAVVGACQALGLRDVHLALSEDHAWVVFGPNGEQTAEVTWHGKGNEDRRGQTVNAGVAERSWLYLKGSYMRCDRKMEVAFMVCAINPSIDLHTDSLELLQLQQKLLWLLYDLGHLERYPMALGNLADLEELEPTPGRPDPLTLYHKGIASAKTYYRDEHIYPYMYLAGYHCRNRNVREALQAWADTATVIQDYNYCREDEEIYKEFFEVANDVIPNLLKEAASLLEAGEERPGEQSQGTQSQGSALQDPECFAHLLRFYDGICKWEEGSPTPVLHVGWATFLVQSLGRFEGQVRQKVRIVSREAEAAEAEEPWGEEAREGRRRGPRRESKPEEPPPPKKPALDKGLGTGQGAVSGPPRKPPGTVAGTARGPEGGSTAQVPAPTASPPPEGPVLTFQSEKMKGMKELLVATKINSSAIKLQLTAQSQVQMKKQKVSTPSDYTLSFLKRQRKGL", "assay": "Fluorescence polarization", "conditions": "for Times more potent than MIV-6 in binding to menin: FP binding assay"}, "MV4;11 cell line": {"test_system": "MV4;11 cell line", "assay": "Cell growth inhibition assay", "format": "cell-based, human"}, "Solubility comparison": {"assay": "Solubility comparison", "format": "physicochemical", "conditions": "compared with 20"}},
  "data": [
    {"compound": "CC(=O)O[C@H]1CCC[C@@H]1[C@](C#N)(c1ccccc1)C1CCN(CC2CN(c3ccc(C#N)cc3)C2)CC1", "note": "(mixture of isomers) [Compound 35, rac-(1S,2R)-2-((S)-Cyano(1-((1-(4-cyanophenyl)azetidin-3-yl)methyl)piperidin-4-yl)(phenyl)methyl)cyclopentyl acetate]", "values": [
      {"measurement": "Times more potent than 31 in binding to menin", "setting": "menin protein", "value": 80, "unit": "times"}
    ]},
    {"compound": "CCCC(=O)O[C@H]1CCC[C@@H]1[C@](C#N)(c1ccccc1)C1CCN(CC2CN(c3ccc(C#N)cc3)C2)CC1", "note": "(mixture of isomers) [Compound 38, rac-(1S,2R)-2-((S)-Cyano(1-((1-(4-cyanophenyl)azetidin-3-yl)methyl)piperidin-4-yl)-(phenyl)methyl)cyclopentyl butyrate]", "values": [
      {"measurement": "Fold loss in binding affinity to menin relative to 37", "setting": "menin protein", "value": 30, "unit": "fold"}
    ]},
    {"compound": "CNC(=O)O[C@H]1CCC[C@@H]1[C@](C#N)(c1ccccc1)C1CCN(CC2CN(c3ccc(C#N)cc3)C2)CC1", "note": "(mixture of isomers) [Compound 39, rac-(1S,2R)-2-((S)-Cyano(1-((1-(4-cyanophenyl)azetidin-3-yl)methyl)piperidin-4-yl)-(phenyl)methyl)cyclopentyl methylcarbamate]", "values": [
      {"measurement": "Factor of enhancement of cellular activity in MV4;11 relative to 31", "setting": "MV4;11 cell line", "value": "> 50"},
      {"measurement": "Times more potent than 31 in binding to menin", "setting": "menin protein", "value": "> 100", "unit": "times"}
    ]},
    {"compound": "CNC(=O)O[C@H]1CCC[C@@H]1[C@]1(C2CCN(CC3CN(c4ccc(S(=O)(=O)c5ccncc5)cc4)C3)CC2)CN(C)Cc2ccccc21", "note": "(mixture of isomers) [Compound 42, rac-(1S,2R)-2-((S)-2-Methyl-4-(1-((1-(4-(pyridin-4-ylsulfonyl)phenyl)azetidin-3-yl)methyl)piperidin-4-yl)-1,2,3,4-tetrahydroisoquinolin-4-yl)cyclopentyl methylcarbamate]", "values": [
      {"measurement": "Times more potent than MIV-6 in cell growth inhibition", "setting": "MV4;11 cell line; MV4;11 (M-89: MV4;11 and MOLM-13)", "value": "> 100", "unit": "times"}
    ]},
    {"compound": "N#Cc1ccc(N2CC(CN3CCC(C(C#N)(c4ccccc4)C4CCCC4)CC3)C2)cc1", "note": "(racemic) [Compound 31, rac-4-(3-((4-(cyano(cyclopentyl)(phenyl)methyl)piperidin-1-yl)methyl)azetidin-1-yl)benzonitrile]", "values": [
      {"measurement": "Times weaker than MIV-6 in binding to menin", "setting": "menin protein", "value": 16, "unit": "times"}
    ]},
    {"compound": "N#Cc1ccc(OCCCN2CCC(C3(C4CCCC4)NCCc4ccccc43)CC2)cc1", "note": "(stereo not drawn) [Compound 6, 4-(3-(4-(1-Cyclopentyl-1,2,3,4-tetrahydroisoquinolin-1-yl)piperidin-1-yl)propoxy)-benzonitrile]", "values": [
      {"measurement": "Times more potent than MIV-6 in binding to menin", "setting": "menin protein", "value": "2-3 times"}
    ]},
    {"compound": "N#Cc1ccc(N2CCC(N3CCC(C4(C5CCCC5)NCCc5ccccc54)CC3)CC2)cc1", "note": "(stereo not drawn) [Compound 9, 4-(4-(1-Cyclopentyl-1,2,3,4-tetrahydroisoquinolin-1-yl)-[1,4'-bipiperidin]-1'-yl)benzonitrile]", "values": [
      {"measurement": "Times less potent than 6 in binding to menin", "setting": "menin protein", "value": "approximately 10 times"}
    ]},
    {"compound": "N#Cc1ccc(N2CCCC(CN3CCC(C4(C5CCCC5)NCCc5ccccc54)CC3)C2)cc1", "note": "(stereo not drawn) [Compound 10, 4-(3-((4-(1-Cyclopentyl-1,2,3,4-tetrahydroisoquinolin-1-yl)piperidin-1-yl)methyl)piperidin-1-yl)benzonitrile]", "values": [
      {"measurement": "Times less potent than 6 in binding to menin", "setting": "menin protein", "value": "~100", "unit": "times"}
    ]},
    {"compound": "N#Cc1ccc(N2CC(CN3CCC(C4(C5CCCC5)NCCc5ccccc54)CC3)C2)cc1", "note": "(stereo not drawn) [Compound 12, 4-(3-((4-(1-Cyclopentyl-1,2,3,4-tetrahydroisoquinolin-1-yl)piperidin-1-yl)methyl)azetidin-1-yl)benzonitrile]", "values": [
      {"measurement": "Times more potent than 6 in binding to menin", "setting": "menin protein", "value": 2, "unit": "times"},
      {"measurement": "Times more potent than MIV-6 in binding to menin", "setting": "menin protein", "value": 5, "unit": "times"}
    ]},
    {"compound": "CS(=O)(=O)c1ccc(N2CC(CN3CCC(C4(C5CCCC5)NCCc5ccccc54)CC3)C2)cc1", "note": "(stereo not drawn) [Compound 13, 1-Cyclopentyl-1-(1-((1-(4-(methylsulfonyl)phenyl)azetidin-3-yl)methyl)piperidin-4-yl)-1,2,3,4-tetrahydroisoquinoline]", "values": [
      {"measurement": "Times less potent than 12 in binding to menin", "setting": "menin protein", "value": 4, "unit": "times"}
    ]},
    {"compound": "CC(C)S(=O)(=O)c1ccc(N2CC(CN3CCC(C4(C5CCCC5)NCCc5ccccc54)CC3)C2)cc1", "note": "(stereo not drawn) [Compound 15, 1-Cyclopentyl-1-(1-((1-(4-(isopropylsulfonyl)phenyl)azetidin-3-yl)methyl)piperidin-4-yl)-1,2,3,4-tetrahydroisoquinoline]", "values": [
      {"measurement": "Times less potent than 14 in binding to menin", "setting": "menin protein", "value": 2, "unit": "times"},
      {"measurement": "Times more potent than 13 in binding to menin", "setting": "menin protein", "value": 2, "unit": "times"}
    ]},
    {"compound": "O=S(=O)(c1ccc(N2CC(CN3CCC(C4(C5CCCC5)NCCc5ccccc54)CC3)C2)cc1)C1CC1", "note": "(stereo not drawn) [Compound 16, 1-Cyclopentyl-1-(1-((1-(4-(cyclopropylsulfonyl)phenyl)azetidin-3-yl)methyl)piperidin-4-yl)-1,2,3,4-tetrahydroisoquinoline]", "values": [
      {"measurement": "Times more potent than 15 in binding to menin", "setting": "menin protein", "value": "2-3 times"}
    ]},
    {"compound": "O=S(=O)(c1ccncc1)c1ccc(N2CC(CN3CCC(C4(C5CCCC5)NCCc5ccccc54)CC3)C2)cc1", "note": "(stereo not drawn) [Compound 21, 1-Cyclopentyl-1-(1-((1-(4-(pyridin-4-ylsulfonyl)phenyl)azetidin-3-yl)methyl)piperidin-4-yl)-1,2,3,4-tetrahydroisoquinoline]", "values": [
      {"measurement": "Relative solubility", "setting": "Solubility comparison", "value": "more soluble than 20"}
    ]},
    {"compound": "O=S(=O)(c1ccncc1)c1ccc(N2CC(CN3CCC(C4(C5CCCC5)CNCc5ccccc54)CC3)C2)cc1", "note": "(stereo not drawn) [Compound 22, 4-Cyclopentyl-4-(1-((1-(4-(pyridin-4-ylsulfonyl)phenyl)azetidin-3-yl)methyl)piperidin-4-yl)-1,2,3,4-tetrahydroisoquinoline]", "values": [
      {"measurement": "Times more potent than 21 in binding to menin", "setting": "menin protein", "value": "2-3 times"}
    ]},
    {"compound": "CN1Cc2ccccc2C(C2CCCC2)(C2CCN(CC3CN(c4ccc(S(=O)(=O)c5ccncc5)cc4)C3)CC2)C1", "note": "(stereo not drawn) [Compound 23, 4-Cyclopentyl-2-methyl-4-(1-((1-(4-(pyridin-4-ylsulfonyl)phenyl)azetidin-3-yl)methyl)piperidin-4-yl)-1,2,3,4-tetrahydroisoquinoline]", "values": [
      {"measurement": "IC50", "setting": "MV4;11 cell line; Homo sapiens, MV4-11, read-out: IC50 cell growth inhibition MV4;11", "value": "400 to 1000", "unit": "nM"}
    ]}
  ]
}
